{"source": "patent US6436988B1", "about": "“Use of 3-(2,4,6-trimethylphenyl)-4-neopentylcarbonyloxy-5,5- tetramethylene-Δ3-dihydrofuran-2-one for controlling the white fly” (Bayer Aktiengesellschaft, priority 1999, dated 2002)", "system": "white fly Bemisia tabaci", "assay": "Bemisia test", "type": "in vivo", "conditions": "concentration of active compound 0.0008 %, infested cotton plants (Gossypium hirsutum) with eggs, larvae and pupae dipped into preparation", "procedure": "Solvent: 7.5 parts by weight of dimethylformamide\nEmulsifier: 2.5 parts by weight of alkylaryl polyglycol ether\nTo produce a suitable preparation of active compound, 1 part by weight of active compound is mixed with the stated amounts of solvent and emulsifier, and the concentrate is diluted with water to the desired concentrations.\nCotton plants (Gossypium hirsutum) infested by eggs, larvae and pupae of the white fly Bemisia tabaci are dipped into a preparation of active compound of the desired concentration.\nAfter the desired period of time, the kill in % is determined. 100% means that all animals have been killed; 0% means that none of the animals have been killed.", "data": [{"molecule": "Cc1cc(C)c(C2=C(OC(=O)CC(C)(C)C)C3(CCCC3)OC2=O)c(C)c1", "note": "[formula (I), 3-(2,4,6-Trimethylphenyl)-4-neopentylcarbonyloxy-5,5-tetramethylene-Δ^3-dihydrofuran-2-one]", "values": [{"measurement": "Kill in % after 14 days", "value": 95, "unit": "%"}]}, {"molecule": "Cc1cc(C)c(C2=C(OC(=O)C(C)(C)C)C3(CCCC3)OC2=O)c(C)c1", "values": [{"measurement": "Kill in % after 14 days", "value": 0, "unit": "%"}]}, {"molecule": "Cc1cc(C)c(C2=C(OC(=O)CC(C)(C)C)C3(CCCCC3)OC2=O)c(C)c1", "values": [{"measurement": "Kill in % after 14 days", "value": 50, "unit": "%"}]}, {"molecule": "Cc1cc(C)c(C2=C(OC(=O)CC(C)C)C3(CCCC3)OC2=O)c(C)c1", "values": [{"measurement": "Kill in % after 14 days", "value": 0, "unit": "%"}]}]}
